Where a name gives a salt, the structure may show the parent alone.

Series [1] has as its system P. falciparum D6. In words: In vitro antimalarial activity, 3H-hypoxanthine growth inhibition assay, D6 line. Type of series: cell-based, Plasmodium falciparum. As to conditions: 96 h, Pf infected erythrocytes, D6 strain sensitive to chloroquine, mean ± SD of three independent experiments. The protocol:
(§1) The IC50 values were determined as previously described.^[ [32] ^] P. falciparum D6 (Sierra‐Leone) laboratory line, sensitive to most antimalarial drugs, and W2 (Indochina) line, resistant to chloroquine and pyrimethamine, were maintained as previously described^[ [33] ^] in medium consisted of 10.4 g L^−1 RPMI‐1640‐LPLF powder (Gibco BRL), 5.97 g L^−1 HEPES buffer (MP Biomedicals, USA), 2.0 g L^−1 d‐glucose (BDH chemicals, Australia), 0.05 g L^−1 hypoxanthine (Sigma, USA) and 40 mg L^−1 gentamycin (Pfizer, Australia), supplemented with 0.21% NaHCO3 and 10% human plasma prior to use. Red blood cells O (Rh+) type were obtained from the Australian Red Cross Blood Service and added to 4% haematocrit. Cultures were routinely synchronized using D‐sorbitol.^[ [34] ^] To evaluate the antimalarial activity of the ANPs, the ^3H‐hypoxanthine growth inhibition assay was utilized, where the uptake of ^3H‐hypoxanthine by malaria parasites is used as a surrogate marker for parasite growth. For these assays, stock solutions of the tested compounds were made to concentrations of 20–40 mM in DMSO or water and subsequently diluted in hypoxanthine‐free complete media prior to assay. The assays (in 96‐well plate format) were initiated when most parasites (> 90%) were at the early trophozoite (ring) stage. Parasite cultures (100 μL per well) at 0.5% initial parasitemia and 2% hematocrit in hypoxanthine‐free RPMI1640‐LPLF medium were exposed to ten twofold serial dilutions of the compounds and chloroquine (reference drug) for 96 h, with ^3H‐hypoxanthine (0.2 μCi well^−1) added ≈48 h after the beginning of the experiment.
(§2) The ^3H‐hypoxanthine incorporation data were analyzed, and sigmoidal growth inhibition curves were produced by nonlinear regression analysis of the ^3H‐hypoxanthine incorporation data versus log‐transformed concentrations of the compounds using Graphpad Prism V5.0 software (GraphPad Software Inc. USA). […] The IC50 values were based on three independent experiments, with mean ± SD calculated.

Series [2] relates to P. falciparum W2. Put plainly: In vitro antimalarial activity, 3H-hypoxanthine growth inhibition assay, W2 line. Type of series: cell-based, Plasmodium falciparum. As to conditions: 96 h, Pf infected erythrocytes, W2 strain resistant to chloroquine, mean ± SD of three independent experiments. The protocol: as §1, §2
In series [3] the test system is HeLa. In words: Cytotoxicity of the prodrug in human cells (CellTiter-Glo 2.0), HeLa. The following applies: 10 µM, versus untreated control; mean ± SD. Type of series: cell-based. On the procedure: (§3) Compound cytotoxicity was evaluated in nontumor human dermal fibroblasts (NHDF), CCRF‐CEM, HL‐60, HeLa, and HepG2 cells. All cell lines were obtained from ATCC (Manassas, VA, USA). The cytotoxicity was assayed using CellTiter‐Glo 2.0 detection reagent (Promega, Madison, USA) according to the manufacturer's protocol. The concentration of prodrug used in this assay was 10 μM. This concentration was chosen as it would more accurately reflect the expected concentration in an in vitro assessment.

Series [4] relates to HepG2. Put plainly: Cytotoxicity of the prodrug in human cells (CellTiter-Glo 2.0), HepG2. Type of series: cell-based. As to conditions: 10 µM, versus untreated control; mean ± SD. The protocol:
as §3

Series [5] relates to CCRF-CEM. Put plainly: Cytotoxicity of the prodrug in human cells (CellTiter-Glo 2.0), CCRF-CEM. The following applies: 10 µM, versus untreated control; mean ± SD. Type of series: cell-based. The protocol: as §3
Series [6] relates to NHDF. Put plainly: Cytotoxicity of the prodrug in human cells (CellTiter-Glo 2.0), NHDF. Type of series: cell-based. As to conditions: 10 µM, versus untreated control; mean ± SD. On the procedure:
as §3

In series [7] the test system is HL-60. Put plainly: Cytotoxicity of the prodrug in human cells (CellTiter-Glo 2.0), HL-60. Type of series: cell-based. As to conditions: 10 µM, versus untreated control; mean ± SD. The protocol: as §3
Series [8] deals with T1, PfHGXPRT (Plasmodium falciparum, UniProt P20035).
T1 construct: made in house
T1 sequence (P20035 1-231): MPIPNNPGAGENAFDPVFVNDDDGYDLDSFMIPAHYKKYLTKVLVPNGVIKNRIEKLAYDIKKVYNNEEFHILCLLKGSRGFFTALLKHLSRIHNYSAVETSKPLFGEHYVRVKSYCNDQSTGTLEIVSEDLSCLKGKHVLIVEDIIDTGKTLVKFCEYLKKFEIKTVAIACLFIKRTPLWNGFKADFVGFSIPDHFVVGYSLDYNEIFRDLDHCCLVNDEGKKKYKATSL
Put plainly: Determination of Ki values, PfHGXPRT. Type of series: biochemical. As to conditions: 0.1 M Tris-HCl, 10 mM MgCl2, pH 7.4; guanine 60 μM, variable PRib-PP; mean ± SD of three independent experiments. The protocol:
(§4) The human and Pf enzymes were purified as described previously.^[ [7] ^, [26] ^] All assays were performed in 0.1 M Tris‐HCl, 10 mM MgCl2, pH 7.4. […] The K i was calculated using the equation, v o = Vmax.[S]o/[S]o + K m(app) and K m(app) = K m [1 + [I]/K i ].

Series [9] concerns the target T2, human HGPRT (Homo sapiens, UniProt P00492).
T2 construct: made in house
T2 sequence (P00492 1-218): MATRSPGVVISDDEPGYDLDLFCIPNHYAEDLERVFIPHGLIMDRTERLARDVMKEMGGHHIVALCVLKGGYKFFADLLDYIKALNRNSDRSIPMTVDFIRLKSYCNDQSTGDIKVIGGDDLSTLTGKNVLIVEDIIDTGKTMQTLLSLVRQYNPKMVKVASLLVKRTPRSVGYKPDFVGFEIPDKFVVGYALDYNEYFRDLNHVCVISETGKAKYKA
Put plainly: Determination of Ki values, human HGPRT. As to conditions: 0.1 M Tris-HCl, 10 mM MgCl2, pH 7.4; guanine 60 μM, variable PRib-PP; mean ± SD of three independent experiments. Type of series: biochemical. On the procedure:
as §4

The mark [10] stands for this setting: Plasmodium falciparum, D6, Erythrocyte.
Where [11] appears, read: Plasmodium falciparum, W2, Erythrocyte.

Take `CCOC(=O)[C@H](Cc1ccccc1)NP(=O)(CCOCC(OCCOCP(=O)(N[C@@H](Cc1ccccc1)C(=O)OCC)N[C@@H](Cc1ccccc1)C(=O)OCC)n1cnc2c(=O)[nH]c(N)nc21)N[C@@H](Cc1ccccc1)C(=O)OCC` (mixture of isomers) [19b, Tetra‐(L‐phenylalaninate ethyl ester) prodrug of (2‐(2‐(guanin‐9‐yl)‐2‐(2‐(phosphonatomethoxy)ethoxy)ethoxy)ethyl)phosphonic acid]: the IC50 in series [1] (setting [10]) is 4.3 ± 0.7 µM; in [2] (setting [11]), 8.8 ± 2.6 µM.

As for `CCOC(=O)[C@H](Cc1ccccc1)NP(=O)(COCC(OCCO)n1cnc2c(=O)[nH]c(N)nc21)N[C@@H](Cc1ccccc1)C(=O)OCC` (mixture of isomers) [21b, Bis‐(L‐phenylalaninate ethyl ester) prodrug of ((2‐(guanin‐9‐yl)‐2‐(2‐hydroxyethoxy)ethoxy)methyl)phosphonic acid], the “Viability HeLa” value in series [3] came out at 91 ± 2 % control. For the same compound, the IC50 turned out to be 84 ± 10 µM in [1] (setting [10]) and 79 ± 8 µM in [2] (setting [11]). Moreover, the “Viability HepG2” value in series [4] is 93 ± 4 % control. For the same compound, in [5], the “Viability CCRF-CEM” value is on record as 97 ± 1 % control. Also, in [6], the “Viability NHDF” value is reported as 94 ± 8 % control. Further, in series [7], the “Viability HL-60” value was 100 ± 2 % control.

`O=c1[nH]cnc2c1ncn2C(COCCP(=O)(O)O)OCCOCP(=O)(O)O` (stereo not drawn) [18a, Sodium salt of (2‐(2‐(hypoxanthin‐9‐yl)‐2‐(2‐(phosphonatomethoxy)ethoxy)ethoxy)ethyl)phosphonic acid]: the Ki is 5 ± 1 µM in series [8] and above 60 µM in series [9].

Turning to `Nc1nc2c(ncn2C(COCCP(=O)(O)O)OCCOCP(=O)(O)O)c(=O)[nH]1` (stereo not drawn) [18b, Sodium salt of (2‐(2‐(guanin‐9‐yl)‐2‐(2‐(phosphonatomethoxy)ethoxy)ethoxy)ethyl)phosphonic acid], the Ki in [8] was 1 ± 0.2 µM; in series [9] it was 0.7 ± 0.4 µM.

With `CCOC(=O)[C@H](Cc1ccccc1)NP(=O)(CCOCC(OCCOCP(=O)(N[C@@H](Cc1ccccc1)C(=O)OCC)N[C@@H](Cc1ccccc1)C(=O)OCC)n1cnc2c(=O)[nH]cnc21)N[C@@H](Cc1ccccc1)C(=O)OCC` (stereo partly drawn) [19a, Tetra‐(L‐phenylalaninate ethyl ester) prodrug of (2‐(2‐(hypoxanthin‐9‐yl)‐2‐(2‐(phosphonatomethoxy)ethoxy)ethoxy)ethyl)phosphonic acid], the “Viability HeLa” value in [3] turned out to be 105 ± 1 % control. Besides, the IC50 in [1] was determined as 2.1 ± 0.2 µM; in [1] (setting [10]), 2 µM; in series [2] it was 3.4 ± 1.1 µM; in [2] (setting [11]) it was 3 µM. In addition, the “Viability HepG2” value in series [4] was determined as 116 ± 1 % control. Besides, in series [5], the “Viability CCRF-CEM” value stood at 106 ± 1 % control. The “Viability NHDF” value in [6] was determined as 114 ± 5 % control. Further, in series [7], the “Viability HL-60” value is reported as 112 ± 1 % control.

In the case of `O=c1[nH]cnc2c1ncn2C(COCP(=O)(O)O)OCCO` (stereo not drawn) [20a, Sodium salt of ((2‐(2‐hydroxyethoxy)‐2‐(hypoxanthin‐9‐yl)ethoxy)methyl) phosphonic acid], in series [9], affinity was put at a Ki of 160 µM.

As to `Nc1nc2c(ncn2C(COCP(=O)(O)O)OCCO)c(=O)[nH]1` (stereo not drawn) [20b, Sodium salt of ((2‐(guanin‐9‐yl)‐2‐(2‐hydroxyethoxy)ethoxy)methyl)phosphonic acid], the Ki in [8] was determined as 5 ± 1 µM; in series [9], 30 ± 5 µM.

As for `O=c1[nH]cnc2c1ncn2C(COCCP(=O)(O)O)OCCO` (stereo not drawn) [20c, Sodium salt of (2‐(2‐(2‐hydroxyethoxy)‐2‐(hypoxanthin‐9‐yl)ethoxy)ethyl)phosphonic acid], the Ki in [8] was 10 ± 5 µM; in series [9] it was above 20 µM.

With `Nc1nc2c(ncn2C(COCCP(=O)(O)O)OCCO)c(=O)[nH]1` (stereo not drawn) [20d, Sodium salt of (2‐(2‐(2‐hydroxyethoxy)‐2‐(guanin‐9‐yl)ethoxy)ethyl)phosphonic acid], the Ki in [8] turned out to be 0.4 ± 0.1 µM; in series [9], 2.5 ± 0.4 µM.

Take `O=c1[nH]c(Cl)nc2c1ncn2C(COCCP(=O)(O)O)OCCO` (stereo not drawn) [20e, Sodium salt of (2‐(2‐(2‐chlorohypoxanthin‐9‐yl)‐2‐(2‐hydroxyethoxy)ethoxy)ethyl)phosphonic acid]: the Ki in series [8] was 50 ± 10 µM; in [9], above 60 µM.

For `O=c1[nH]cnc2c1cnn2C(COCCP(=O)(O)O)OCCO` (stereo not drawn) [20f, Sodium salt of (2‐(2‐(2‐hydroxyethoxy)‐2‐(4‐oxo‐4,5‐dihydro‐1H‐pyrazolo[3,4‐d]pyrimidin‐1‐yl)ethoxy)ethyl)phosphonic acid], the Ki in series [8] and in series [9] was above 60 µM in each case.

Take `O=c1[nH]cnc2c1ncn2C(CCOCP(=O)(O)O)OCCCO` (stereo not drawn) [20g, Sodium salt of ((3‐(3‐hydroxypropoxy)‐3‐(hypoxanthin‐9‐yl)propoxy)methyl)phosphonic acid]: the Ki in series [8] and in series [9] was above 60 µM each time.

In the case of `Nc1nc2c(ncn2C(CCOCP(=O)(O)O)OCCCO)c(=O)[nH]1` (stereo not drawn) [20h, Sodium salt of ((3‐(guanin‐9‐yl)‐3‐(3‐hydroxypropoxy)propoxy)methyl)phosphonic acid], the results for the Ki in series [8] and in [9] were above 60 µM and 10 ± 3 µM, respectively.

`O=c1[nH]cnc2c1cnn2C(CCOCP(=O)(O)O)OCCCO` (stereo not drawn) [20i, Sodium salt of ((3‐(3‐hydroxypropoxy)‐3‐(4‐oxo‐4,5‐dihydro‐1H‐pyrazolo[3,4‐d]pyrimidin‐1‐yl)propoxy)methyl)phosphonic acid]: the Ki in [8] and in series [9] was above 60 µM throughout.

Consider `CCOC(=O)[C@H](Cc1ccccc1)NP(=O)(COCC(OCCO)n1cnc2c(=O)[nH]cnc21)N[C@@H](Cc1ccccc1)C(=O)OCC` (stereo partly drawn) [21a, Bis‐(L‐phenylalaninate ethyl ester) prodrug of ((2‐(2‐hydroxyethoxy)‐2‐(hypoxanthin‐9‐yl)ethoxy)methyl)phosphonic acid], for which the “Viability HeLa” value in series [3] amounted to 97 ± 2 % control. In addition, the IC50 in series [1] (setting [10]) worked out at 34 ± 6 µM; in series [2] (setting [11]) it was 71 ± 1 µM. In addition, the “Viability HepG2” value in series [4] is 98 ± 3 % control. The “Viability CCRF-CEM” value in series [5] stood at 101 ± 2 % control. The “Viability NHDF” value in series [6] is 104 ± 8 % control. Also, the “Viability HL-60” value in series [7] was 103 ± 0 % control.

For `CCOC(COCCP(=O)(O)O)n1cnc2c(=O)[nH]c(N)nc21` (stereo not drawn) [compound 25, Sodium salt of (2‐(2‐(guanin‐9‐yl)‐2‐ethoxyethoxy)ethyl)phosphonic acid], the Ki in [8] is 3 ± 0.5 µM; in series [9], 3.7 ± 0.9 µM.
